Results on one molecule are retold here after patent US7531193B2 (priority 2004, dated 2009).

The experiment relates to human striated muscle cell innervation with spinal cord and spinal ganglion explants from rat embryos. The format is cell-based, human (muscle cells), rat (embryo explants).

Several values for one entry are separate records, joined by “and”; a condition that tells them apart may be missing. Equal values may be shown once.

`C/C=C/C=C\CC/C=C/C(=O)NCC(C)C` [Pure spilanthol, spilanthol]: the “Effect on muscle contractions (conclusion)” value was “lead to a blockage of muscle contractions”; the “Frequency of contractions (%), incubation without washout, 5 min” value was 0% and 7%; the “Frequency of contractions (%), incubation without washout, 1 h” value was 0%; the “Frequency of contractions (%), incubation without washout, 6 h” value is 0% and 4%. In addition, the “Frequency of contractions (%), recuperation after washout, 1 h” value is reported as 0%; the “Incubation time after which muscle contractions are blocked” value is 5 min; the “Recuperation of contractile activity (conclusion)” value is listed as “not observed”; the “Time the fibres remain blocked after elimination of the substance” value was 24 h. For the same molecule, the “Time until which the blockage is maintained during incubation” value was 6 h.
